Experimental data from article PMC3711766 (The Journal of neuroscience : the official journal of the …, 2013).
Where two headings read alike, the source gives them in different places. Where a SMILES comes first, the peptide text is derived from it. [ ]: non-standard residue; d: D form. The star is where a group is joined. X1 = CN1c2cc3c(cc2C(CS(=O)(=O)[O-])=CC1(C)C)C(c1ccc(C(=O)NCCCCCN2C(=O)CC(*)C2=O)cc1C(=O)O)=c1cc2c(cc1O3)=[N+](C)C(C)(C)C=C2CS(=O)(=O)O

What was measured:
FLAG-MOR [1] = target: T1, FLAG-MOR (Mus musculus, UniProt P42866); experiment: Steady state binding of derm A594 in live FLAG-MOR HEK 293 cells
T1 sequence (P42866 whole entry): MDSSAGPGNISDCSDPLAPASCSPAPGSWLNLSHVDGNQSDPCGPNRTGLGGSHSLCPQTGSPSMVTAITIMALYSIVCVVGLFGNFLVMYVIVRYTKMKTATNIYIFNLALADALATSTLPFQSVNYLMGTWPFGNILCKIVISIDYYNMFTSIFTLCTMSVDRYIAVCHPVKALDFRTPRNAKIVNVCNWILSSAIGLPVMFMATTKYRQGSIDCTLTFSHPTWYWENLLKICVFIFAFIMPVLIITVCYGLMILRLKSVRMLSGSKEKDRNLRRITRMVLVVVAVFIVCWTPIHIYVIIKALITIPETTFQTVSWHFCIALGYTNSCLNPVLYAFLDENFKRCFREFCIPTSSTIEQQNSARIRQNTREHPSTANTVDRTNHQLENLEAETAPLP

FLAG-MOR [2] = target: T1, FLAG-MOR; type: binding
FLAG-MOR [3] = target: T1, FLAG-MOR; experiment: Binding and unbinding kinetics of derm A594 in live FLAG-MOR HEK 293 cells; details: for average time constant of association: derm A594 30 nM
FLAG-MOR [4] = target: T1, FLAG-MOR; type: binding; details: derm A594 200 nM; ME 30 µM 2 hrs, then ME 3 µM pre pulse
FLAG-MOR [5] = target: T1, FLAG-MOR; type: cell-based; details: ME 1 µM, 5 sec; pertussis toxin 100 ng/mL overnight
FLAG-MOR [6] = target: T1, FLAG-MOR; type: binding; remark: listed apart in the source

## C[C@@H](NC(=O)[C@@H](N)Cc1ccc(O)cc1)C(=O)N[C@@H](Cc1ccccc1)C(=O)NCC(=O)N[C@@H](Cc1ccc(O)cc1)C(=O)N1CCC[C@H]1C(=O)N[C@@H](CCCCN)C(=O)N[C@@H](CSC1CC(=O)N(CCCCCNC(=O)c2ccc(C3=c4cc5c(cc4Oc4cc6c(cc43)C(CS(=O)(=O)[O-])=CC(C)(C)N6C)=[N+](C)C(C)(C)C=C5CS(=O)(=O)O)c(C(=O)O)c2)C1=O)C(N)=O (stereo partly drawn) [derm A594, dermorphin Alexa 594] (H-Y[dA]FGYPKC(X1)-NH2; N-terminus assumed)
FLAG-MOR [1]; after ME 30 µM 2 hrs
  Hill slope of steady state binding: 1.03±0.3
FLAG-MOR [1]; untreated live cells
  Hill slope of steady state binding: 0.95±.02
FLAG-MOR [2]; WT MEF cells, untreated
  fraction derm A594 remaining after 3 min: 0.09±0.01
FLAG-MOR [2]; β-arr 1/2 k.o. MEF cells, untreated
  fraction derm A594 remaining after 3 min: 0.13±0.02
FLAG-MOR [3]
  kon: 353000 M⁻¹ s⁻¹
FLAG-MOR [3]; ME 30 µM 2 hr vs untreated
  decrease of koff after ME treatment: approximately 6 fold
  decrease of kon after ME treatment: about 40%
FLAG-MOR [3]; ME treated cells (30 µM 2 hr)
  average time constant of association: 51.5 ± 7.8 s
FLAG-MOR [3]; untreated cells
  average time constant of association: 11.4 ± 0.4 s
FLAG-MOR [3]; live cells
  time constant of dissociation from the receptor: ~10 s
FLAG-MOR [3]; read-out: koff (intercept of linear fit)
  koff: 0.011 s⁻¹
FLAG-MOR [4]
  relative amount of derm A594 bound after 1 min (R/G): 0.95±0.08

## pertussis toxin [reference compound]
FLAG-MOR [2]; β-arr 1/2 k.o. MEF cells, pertussis toxin 100 ng/ml overnight, no ME
  fraction derm A594 remaining after 3 min: 0.12±0.02
FLAG-MOR [5]
  GIRK current: 3.3±6.8 pA

## COc1ccc2c3c1O[C@H]1C(=O)CC[C@@]4(O)[C@@H](C2)N(C)CC[C@]314 [oxycodone]
FLAG-MOR [6]
  fraction derm A594 remaining after 3 min: 0.23±0.01
